Data from US20250197359A1, “CANNABINOID RECEPTOR MODULATING COMPOUNDS” (The U.S.A., as Represented by the Secretary, Department of …, priority 2022, published 2025).

Columns and labels:
[1] = molecular target: CB1 (UniProt P21554); experiment: CB1 radioligand binding assay; parameters: species or system human; details: read-out: Ki (CB1)
Method in brief: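 Radioligand binding to human CB1 stably expressed in CHO cells and to mouse brain membrane CB1 gave binding constants. For selected compounds, antagonism of CP55940-induced CB1 activation was measured in MPXNomad-CB1 HEK293 cells via cAMPNomad (cAMP) and ArresNomad (β-arrestin) fluorescent biosensors.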

[2] = molecular target: iNOS (Mus musculus, UniProt P29477); experiment: Inducible NOS biochemical assay; details: for % Response (Inducible NOS): Mouse, 10 μM, criteria ≥ ±50%, preliminary data
Description: Biochemical assay results are presented as the percent inhibition of specific binding or activity (iNOS, CAMP, beta arrestin).

[3] = molecular target: T1, Brain/CB1 (Mus musculus, UniProt P47746); experiment: Functional GTPγS binding, Brain/CB1; format: biochemical
T1 construct: from tissue; host or cells: mouse brain membranes
T1 sequence (P47746 whole entry): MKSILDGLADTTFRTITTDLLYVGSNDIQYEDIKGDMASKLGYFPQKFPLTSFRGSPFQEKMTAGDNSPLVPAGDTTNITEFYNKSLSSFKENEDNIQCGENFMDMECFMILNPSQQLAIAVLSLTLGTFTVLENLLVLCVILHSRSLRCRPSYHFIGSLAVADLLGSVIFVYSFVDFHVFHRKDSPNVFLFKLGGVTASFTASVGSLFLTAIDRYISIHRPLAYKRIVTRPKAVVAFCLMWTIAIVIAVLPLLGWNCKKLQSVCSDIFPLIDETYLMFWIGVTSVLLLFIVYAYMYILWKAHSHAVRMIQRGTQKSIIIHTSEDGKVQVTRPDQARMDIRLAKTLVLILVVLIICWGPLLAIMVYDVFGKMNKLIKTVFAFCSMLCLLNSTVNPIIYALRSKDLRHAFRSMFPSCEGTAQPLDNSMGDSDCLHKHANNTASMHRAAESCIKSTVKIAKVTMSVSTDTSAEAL
Description: Furthermore, the intermediates urea compounds 8a-m were chlorinated with phosphorus oxychloride in the presence of DIPEA base to form imidoyl chloride intermediate and reacted with acetamidine hydrochloride/methyl carbamimidothioate iodide/methyl carbamimidoselenoate iodide and other amines to furnish the target compounds (10a-34b) (Scheme 2, FIG. 2, Scheme 5, FIG. 5). The urea derivatives were converted to the thiourea derivatives 9a-9d by employing sodium thiosulfate. Compound 8a-b, 8e-f were converted to corresponding thiourea by employing sodium thiosulfate dissolved in water dioxane mixture and the reaction was heated to 85° C. for 2 h. […] The binding constant for the synthesized compounds were determined by using radioligand binding assay in mouse brain membranes as well as the target compounds were evaluated in vitro at the human CB1 receptor, stably expressed into Chinese hamster ovary (CHO) cells as well as mouse brain membrane CB1.

| Compound | Ki [1] [nM] | iNOS inhibition % Response [2] [%] | IC50 [3] [nM] | % Response (Inducible NOS) [2] [%] |
| --- | --- | --- | --- | --- |
| C[Se]/C(N)=N\C(=N\S(=O)(=O)c1ccc(C(F)(F)F)cc1)N1CCC(c2ccccc2)C(c2ccc(Cl)cc2)=N1 (stereo not shown) [Compound 12b, methyl (Z)—N′—((Z)-(3-(4-chlorophenyl)-4-phenyl-5,6-dihydropyridazin-1 (4H)-yl)(((4-(trifluoromethyl)phenyl)sulfonyl)imino)methyl)carbamimidoselenoate] | 114 | 64 |  |  |
| O=S(=O)(/N=C(/N=C1\CCCCN1)N1CCC(c2ccccc2)C(c2ccc(Cl)cc2)=N1)c1ccc2ccccc2c1 (stereo not shown) [Compound 15, (Z)-3-(4-chlorophenyl)-N′-(naphthalen-2-ylsulfonyl)-4-phenyl-N—((E)-piperidin-2-ylidene)-5,6-dihydropyridazine-1 (4H)-carboximidamide] | 34.1 |  | 287 |  |
| O=S(=O)(/N=C(/N=C1\CCCCN1)N1CCC(c2ccccc2)C(c2ccc(Cl)cc2)=N1)c1ccc(C(F)(F)F)cc1 (stereo not shown) [Compound 16, (Z)-3-(4-chlorophenyl)-4-phenyl-N—((E)-piperidin-2-ylidene)-N′-((4-(trifluoromethyl)phenyl)sulfonyl)-5,6-dihydropyridazine-1 (4H)-carboximidamide] | 26 | 51 | 104 |  |
| COC(=O)CN/C(=N/S(=O)(=O)c1ccc(C(F)(F)F)cc1)N1CCC(c2ccccc2)C(c2ccc(Cl)cc2)=N1 (stereo not shown) [Compound 23, methyl (Z)-((3-(4-chlorophenyl)-4-phenyl-5,6-dihydropyridazin-1 (4H)-yl)(((4-(trifluoromethyl)phenyl)sulfonyl)imino)methyl)glycinate] | 4.37 |  | 8.1 |  |
| NC(=O)CN/C(=N/S(=O)(=O)c1ccc(C(F)(F)F)cc1)N1CCC(c2ccccc2)C(c2ccc(Cl)cc2)=N1 (stereo not shown) [Compound 24, (Z)-2-(3-(4-chlorophenyl)-4-phenyl-N′-((4-(trifluoromethyl)phenyl)sulfonyl)-1,4,5,6-tetrahydropyridazine-1-carboximidamido)acetamide] | 10 |  | 33 |  |
| NC(=O)CN/C(=N/S(=O)(=O)c1ccc(Cl)cc1)N1CCC(c2ccccc2)C(c2ccc(Cl)cc2)=N1 (stereo not shown) [Compound 25, (Z)-2-(3-(4-chlorophenyl)-N′-((4-chlorophenyl)sulfonyl)-4-phenyl-1,4,5,6-tetrahydropyridazine-1-carboximidamido)acetamide] | 41.1 |  | 207 |  |
| C/C(N)=N\C(=N\S(=O)(=O)c1ccc(C)cc1)N1CCC(c2ccccc2)C(c2ccc(Cl)cc2)=N1 (stereo not shown) [Compound 101, (Z)—N—((E)-1-aminoethylidene)-3-(4-chlorophenyl)-4-phenyl-N′-tosyl-5,6-dihydropyridazine-1 (4H)-carboximidamide] | 84 |  | > 1000 |  |
| C/C(N)=N\C(=N\S(=O)(=O)c1ccc(C(F)(F)F)cc1)N1CCC(c2ccccc2)C(c2ccc(Cl)cc2)=N1 (stereo not shown) [drawing 16] |  |  |  | 64 |
| CS/C(N)=N\C(=N\S(=O)(=O)c1ccc(C(F)(F)F)cc1)N1CCC(c2ccccc2)C(c2ccc(Cl)cc2)=N1 (stereo not shown) [drawing 17] |  |  |  | 56 |
| C[Se]/C(N)=N\C(=N\S(=O)(=O)c1ccc(C(F)(F)F)cc1)N1CCC(c2ccccc2)C(c2ccc(Cl)cc2)=N1 (stereo not shown) [drawing 18] |  |  |  | 64 |

Other lines, results leading:

| Ki [1] [nM] | iNOS inhibition % Response [2] [%] | IC50 [3] [nM] | % Response (Inducible NOS) [2] [%] | Compound |
| --- | --- | --- | --- | --- |
| 76 | 39 | 138 |  | C/C(N)=N\C(=N\S(=O)(=O)c1ccc(Cl)cc1)N1CCC(c2ccccc2)C(c2ccc(Cl)cc2)=N1 (stereo not shown) [Compound 10a, (Z)—N—((E)-1-aminoethylidene)-3-(4-chlorophenyl)-N′-((4-chlorophenyl)sulfonyl)-4-phenyl-5,6-dihydropyridazine-1 (4H)-carboximidamide] |
| 56.5 | 55 | 104 |  | C/C(N)=N\C(=N\S(=O)(=O)c1ccc(OC(F)(F)F)cc1)N1CCC(c2ccccc2)C(c2ccc(Cl)cc2)=N1 (stereo not shown) [Compound 10d, (Z)—N—((E)-1-aminoethylidene)-3-(4-chlorophenyl)-4-phenyl-N′-((4-(trifluoromethoxy)phenyl)sulfonyl)-5,6-dihydropyridazine-1 (4H)-carboximidamide] |
| 77 | 43 | 338 |  | C/C(N)=N\C(=N\S(=O)(=O)c1ccc(C#N)cc1)N1CCC(c2ccccc2)C(c2ccc(Cl)cc2)=N1 (stereo not shown) [Compound 10e, (Z)—N—((E)-1-aminoethylidene)-3-(4-chlorophenyl)-N′-((4-cyanophenyl)sulfonyl)-4-phenyl-5,6-dihydropyridazine-1 (4H)-carboximidamide] |
| 23 | 55 | 151 |  | CC(C)/C(N)=N\C(=N\S(=O)(=O)c1ccc(C(F)(F)F)cc1)N1CCC(c2ccccc2)C(c2ccc(Cl)cc2)=N1 (stereo not shown) [Compound 10m, (Z)—N—((E)-1-amino-2-methylpropylidene)-3-(4-chlorophenyl)-4-phenyl-N′-((4-(trifluoromethyl)phenyl)sulfonyl)-5,6-dihydropyridazine-1 (4H)-carboximidamide] |
| 44 | 55 | 211 |  | N/C(=N\C(=N\S(=O)(=O)c1ccc(C(F)(F)F)cc1)N1CCC(c2ccccc2)C(c2ccc(Cl)cc2)=N1)C1CC1 (stereo not shown) [Compound 10n, (Z)—N—((Z)-amino (cyclopropyl)methylene)-3-(4-chlorophenyl)-4-phenyl-N′-((4-(trifluoromethyl)phenyl)sulfonyl)-5,6-dihydropyridazine-1 (4H)-carboximidamide] |
| 20.5 | 24 | 19 |  | N/C(=N/C(=N/S(=O)(=O)c1ccc(C(F)(F)F)cc1)N1CCC(c2ccccc2)C(c2ccc(Cl)cc2)=N1)c1ccccc1Cl (stereo not shown) [Compound 10s, (Z)—N—((E)-amino (2-chlorophenyl)methylene)-3-(4-chlorophenyl)-4-phenyl-N′-((4-(trifluoromethyl)phenyl)sulfonyl)-5,6-dihydropyridazine-1 (4H)-carboximidamide] |
| 26 |  | 115 |  | N/C(=N\C(=N\S(=O)(=O)c1ccc(C(F)(F)F)cc1)N1CCC(c2ccccc2)C(c2ccc(F)cc2)=N1)c1ccccc1F (stereo not shown) [Compound 10zd, (Z)—N—((Z)-amino (2-fluorophenyl)methylene)-3-(4-fluorophenyl)-4-phenyl-N′-((4-(trifluoromethyl)phenyl)sulfonyl)-5,6-dihydropyridazine-1 (4H)-carboximidamide] |
| 58.6 |  | 450 |  | N/C(=N\C(=N\S(=O)(=O)c1ccc(C(F)(F)F)cc1)N1CCC(c2ccccc2)C(c2ccc(F)cc2)=N1)c1ccc(F)cc1F (stereo not shown) [Compound 10ze, (Z)—N—((Z)-amino (2,4-difluorophenyl)methylene)-3-(4-fluorophenyl)-4-phenyl-N′-((4-(trifluoromethyl)phenyl)sulfonyl)-5,6-dihydropyridazine-1 (4H)-carboximidamide] |
| 41.7 |  | 209 |  | N/C(=N\C(=N\S(=O)(=O)c1ccc(C(F)(F)F)cc1)N1CCC(c2ccccc2)C(c2ccc(F)cc2)=N1)c1ccccn1 (stereo not shown) [Compound 10zf, (Z)—N—((Z)-amino (pyridin-2-yl)methylene)-3-(4-fluorophenyl)-4-phenyl-N′-((4-(trifluoromethyl)phenyl)sulfonyl)-5,6-dihydropyridazine-1 (4H)-carboximidamide] |
| 86.7 | 56 | 125 |  | CS/C(N)=N\C(=N\S(=O)(=O)c1ccc(C(F)(F)F)cc1)N1CCC(c2ccccc2)C(c2ccc(Cl)cc2)=N1 (stereo not shown) [Compound 11b, methyl (Z)—N′—((Z)-(3-(4-chlorophenyl)-4-phenyl-5,6-dihydropyridazin-1 (4H)-yl)(((4-(trifluoromethyl)phenyl)sulfonyl)imino)methyl)carbamimidothioate] |
| 99.7 | 66 | 640 |  | CCS/C(N)=N\C(=N/S(=O)(=O)c1ccc(C(F)(F)F)cc1)N1CCC(c2ccccc2)C(c2ccc(Cl)cc2)=N1 (stereo not shown) [Compound 11i, ethyl (Z)—N′—((E)-(3-(4-chlorophenyl)-4-phenyl-5,6-dihydropyridazin-1 (4H)-yl)(((4-(trifluoromethyl)phenyl)sulfonyl)imino)methyl)carbamimidothioate] |
| 93 |  | > 1000 |  | CS/C(N)=N/C(=N/S(=O)(=O)c1ccc(C(F)(F)F)cc1)N1CCC(c2ccccc2)C(c2ccc(F)cc2)=N1 (stereo not shown) [Compound 11j, methyl (E)-N′—((Z)-(3-(4-fluorophenyl)-4-phenyl-5,6-dihydropyridazin-1 (4H)-yl)(((4-(trifluoromethyl)phenyl)sulfonyl)imino)methyl)carbamimidothioate] |
| 19.8 |  | 325 |  | N#Cc1ccc(S(=O)(=O)/N=C(/N=C2\CCCCN2)N2CCC(c3ccccc3)C(c3ccc(Cl)cc3)=N2)cc1 (stereo not shown) [Compound 13b, (Z)-3-(4-chlorophenyl)-N′-((4-cyanophenyl)sulfonyl)-4-phenyl-N—((E)-piperidin-2-ylidene)-5,6-dihydropyridazine-1 (4H)-carboximidamide] |
